Reference: PMC12251544 (2025)

system: FAM-SpA1-1/SpA1-2 (T-2 toxin split aptamer) (DNA, aptamer) CAGCTCAGAAGCTTGATCCTG/TATATCAAGCATAGAGGTG; conditions: 5 mM K+, 100 mM Na+, 1 mM Mg2+; 50 mM Tris-HCl, 1% methanol, pH 7.4, room temperature; sensor selectivity; concentration tested not stated

Row | SMILES | binding
1 | CCCC[C@@H](C)[C@@H](OC(=O)C[C@@H](CC(=O)O)C(=O)O)[C@H](C[C@@H](C)C[C@H](O)CCCC[C@@H](O)C[C@H](O)[C@H](C)N)OC(=O)C[C@@H](CC(=O)O)C(=O)O | no
2 | C[C@@H]1Cc2c(Cl)cc(C(=O)N[C@@H](Cc3ccccc3)C(=O)O)c(O)c2C(=O)O1 | no
3 | C[C@H]1CCCC(=O)CCC/C=C/c2cc(O)cc(O)c2C(=O)O1 | no
